Measured values published in the NIST ThermoML archive (doi:10.1016/j.fluid.2005.05.023).
Numbers after ± are expanded uncertainties.

Experiment: xn = mol fraction of the nth substance listed
Conditions: Liquid, Vibrating tube method, x1 = 1

SMILES: CCO [ethanol] + Cc1ccccc1
- mass density (283.15 K, 100 kPa): 798 ± 0.2 kg/m3
- mass density (283.15 K, 5000 kPa): 802 ± 0.3 kg/m3
- mass density (283.15 K, 10000 kPa): 805.9 ± 0.3 kg/m3
- mass density (283.15 K, 15000 kPa): 809.5 ± 0.3 kg/m3
- mass density (283.15 K, 20000 kPa): 813 ± 0.3 kg/m3
- mass density (283.15 K, 25000 kPa): 816.4 ± 0.3 kg/m3
- mass density (283.15 K, 30000 kPa): 819.7 ± 0.4 kg/m3
- mass density (283.15 K, 35000 kPa): 822.8 ± 0.4 kg/m3
- mass density (283.15 K, 40000 kPa): 825.9 ± 0.4 kg/m3
- mass density (283.15 K, 45000 kPa): 828.8 ± 0.4 kg/m3
- mass density (293.15 K, 100 kPa): 789.5 ± 0.2 kg/m3
- mass density (293.15 K, 5000 kPa): 793.7 ± 0.3 kg/m3
- mass density (293.15 K, 10000 kPa): 797.8 ± 0.3 kg/m3
- mass density (293.15 K, 15000 kPa): 801.6 ± 0.3 kg/m3
- mass density (293.15 K, 20000 kPa): 805.3 ± 0.3 kg/m3
- mass density (293.15 K, 25000 kPa): 808.9 ± 0.3 kg/m3
- mass density (293.15 K, 30000 kPa): 812.3 ± 0.4 kg/m3
- mass density (293.15 K, 35000 kPa): 815.6 ± 0.4 kg/m3
- mass density (293.15 K, 40000 kPa): 818.7 ± 0.4 kg/m3
- mass density (293.15 K, 45000 kPa): 821.8 ± 0.4 kg/m3
- mass density (303.15 K, 100 kPa): 780.9 ± 0.2 kg/m3
- mass density (303.15 K, 5000 kPa): 785.3 ± 0.3 kg/m3
- mass density (303.15 K, 10000 kPa): 789.6 ± 0.3 kg/m3
- mass density (303.15 K, 15000 kPa): 793.7 ± 0.3 kg/m3
- mass density (303.15 K, 20000 kPa): 797.5 ± 0.3 kg/m3
- mass density (303.15 K, 25000 kPa): 801.3 ± 0.3 kg/m3
- mass density (303.15 K, 30000 kPa): 804.8 ± 0.4 kg/m3
- mass density (303.15 K, 35000 kPa): 808.2 ± 0.4 kg/m3
- mass density (303.15 K, 40000 kPa): 811.5 ± 0.4 kg/m3
- mass density (303.15 K, 45000 kPa): 814.7 ± 0.4 kg/m3
- mass density (313.15 K, 100 kPa): 772.1 ± 0.2 kg/m3
- mass density (313.15 K, 5000 kPa): 776.8 ± 0.3 kg/m3
- mass density (313.15 K, 10000 kPa): 781.3 ± 0.3 kg/m3
- mass density (313.15 K, 15000 kPa): 785.6 ± 0.3 kg/m3
- mass density (313.15 K, 20000 kPa): 789.6 ± 0.3 kg/m3
- mass density (313.15 K, 25000 kPa): 793.5 ± 0.4 kg/m3
- mass density (313.15 K, 30000 kPa): 797.2 ± 0.4 kg/m3
- mass density (313.15 K, 35000 kPa): 800.8 ± 0.4 kg/m3
- mass density (313.15 K, 40000 kPa): 804.2 ± 0.4 kg/m3
- mass density (313.15 K, 45000 kPa): 807.6 ± 0.5 kg/m3
- mass density (323.15 K, 100 kPa): 763.3 ± 0.2 kg/m3
- mass density (323.15 K, 5000 kPa): 768.3 ± 0.3 kg/m3
- mass density (323.15 K, 10000 kPa): 773 ± 0.3 kg/m3
- mass density (323.15 K, 15000 kPa): 777.6 ± 0.3 kg/m3
- mass density (323.15 K, 20000 kPa): 781.8 ± 0.3 kg/m3
- mass density (323.15 K, 25000 kPa): 785.9 ± 0.4 kg/m3
- mass density (323.15 K, 30000 kPa): 789.7 ± 0.4 kg/m3
- mass density (323.15 K, 35000 kPa): 793.5 ± 0.4 kg/m3
- mass density (323.15 K, 40000 kPa): 797.1 ± 0.4 kg/m3
- mass density (323.15 K, 45000 kPa): 800.5 ± 0.5 kg/m3
- mass density (333.15 K, 100 kPa): 754 ± 0.2 kg/m3
- mass density (333.15 K, 5000 kPa): 759.3 ± 0.3 kg/m3
- mass density (333.15 K, 10000 kPa): 764.3 ± 0.3 kg/m3
- mass density (333.15 K, 15000 kPa): 769.1 ± 0.3 kg/m3
- mass density (333.15 K, 20000 kPa): 773.6 ± 0.3 kg/m3
- mass density (333.15 K, 25000 kPa): 777.8 ± 0.4 kg/m3
- mass density (333.15 K, 30000 kPa): 781.9 ± 0.4 kg/m3
- mass density (333.15 K, 35000 kPa): 785.8 ± 0.4 kg/m3
- mass density (333.15 K, 40000 kPa): 789.5 ± 0.5 kg/m3
- mass density (333.15 K, 45000 kPa): 793.1 ± 0.5 kg/m3
- mass density (343.15 K, 100 kPa): 744.5 ± 0.2 kg/m3
- mass density (343.15 K, 5000 kPa): 750.1 ± 0.3 kg/m3
- mass density (343.15 K, 10000 kPa): 755.5 ± 0.3 kg/m3
- mass density (343.15 K, 15000 kPa): 760.5 ± 0.3 kg/m3
- mass density (343.15 K, 20000 kPa): 765.3 ± 0.4 kg/m3
- mass density (343.15 K, 25000 kPa): 769.8 ± 0.4 kg/m3
- mass density (343.15 K, 30000 kPa): 774 ± 0.4 kg/m3
- mass density (343.15 K, 35000 kPa): 778.1 ± 0.4 kg/m3
- mass density (343.15 K, 40000 kPa): 782 ± 0.5 kg/m3
- mass density (343.15 K, 45000 kPa): 785.7 ± 0.5 kg/m3
- mass density (353.15 K, 5000 kPa): 740.6 ± 0.3 kg/m3
- mass density (353.15 K, 10000 kPa): 746.4 ± 0.3 kg/m3
- mass density (353.15 K, 15000 kPa): 751.7 ± 0.3 kg/m3
- mass density (353.15 K, 20000 kPa): 756.7 ± 0.4 kg/m3
- mass density (353.15 K, 25000 kPa): 761.5 ± 0.4 kg/m3
- mass density (353.15 K, 30000 kPa): 766 ± 0.4 kg/m3
- mass density (353.15 K, 35000 kPa): 770.2 ± 0.4 kg/m3
- mass density (353.15 K, 40000 kPa): 774.3 ± 0.5 kg/m3
- mass density (353.15 K, 45000 kPa): 778.2 ± 0.5 kg/m3
